# Reference: article PMC4042160, “In silico, in vitro and cellular analysis with a kinome-wide inhibitor panel correlates cellular LRRK2 dephosphorylation to inhibitor activity on LRRK2” (Frontiers in Molecular Neuroscience, 2014)
# Read-outs that look alike come from different tables or passages of the source.
# Assays:
# [1] = molecular target: T1, LRRK2 phospho-Ser935 (Homo sapiens, UniProt Q5S007); assay: Cellular LRRK2 phosphoserine 935 dephosphorylation spotblot assay in SH-SY5Y cells stably expressing 3xFlag-LRRK2; assay type: cell-based; details: for Phosphorylation level relative to solvent (%) (cellular pS935 assay): @ 5 μM for 2 h, SH-SY5Y stably expressing LRRK2, pS935/total LRRK2; for IC50: read-out: IC50 cellular (pS935); for dephosphorylation of LRRK2 (Ser935): 5 μM, 2 h, SH-SY5Y
# T1 construct: expressed in transfected cells
# [2] = molecular target: T2, full length LRRK2 protein (Homo sapiens, UniProt Q5S007); assay: In vitro LRRKtide kinase assay with full length recombinant LRRK2, dose-response (IC50/pIC50); assay type: biochemical; details: for IC50: read-out: IC50 in vitro (lrrktide)
# T2 construct: compounds were tested in triplicate with full length LRRK2 protein; made in house
# [3] = molecular target: T3, GST-tagged truncated LRRK2 containing residues 970 to 2527 (Homo sapiens, UniProt Q5S007); assay: In vitro LRRKtide peptide-substrate kinase assay, single dose testing (10 μM); assay type: biochemical; details: for % LRRKtide phosphorylation relative to solvent: LRRKtide assay @ 10 μM inhibitor, GST-LRRK2 970-2527, 10 μM ATP, mean, N = 3, solvent control = 100%; for activity on LRRK2 kinase activity in vitro (in words): no activity at 10 μM
# T3 construct: GST-tagged truncated LRRK2 containing residues 970 to 2527 (Life Technologies); purchased Life Technologies
# [4] = pS935 dephosphorylation, SH-SY5Y cells with stable expression of LRRK2
# [5] = pS935 level as % of control, 5 μM for 2 h, SH-SY5Y cells with stable expression of LRRK2
# [6] = LRRKtide phosphorylation, dose-response
# T3 sequence (Q5S007 970-2527): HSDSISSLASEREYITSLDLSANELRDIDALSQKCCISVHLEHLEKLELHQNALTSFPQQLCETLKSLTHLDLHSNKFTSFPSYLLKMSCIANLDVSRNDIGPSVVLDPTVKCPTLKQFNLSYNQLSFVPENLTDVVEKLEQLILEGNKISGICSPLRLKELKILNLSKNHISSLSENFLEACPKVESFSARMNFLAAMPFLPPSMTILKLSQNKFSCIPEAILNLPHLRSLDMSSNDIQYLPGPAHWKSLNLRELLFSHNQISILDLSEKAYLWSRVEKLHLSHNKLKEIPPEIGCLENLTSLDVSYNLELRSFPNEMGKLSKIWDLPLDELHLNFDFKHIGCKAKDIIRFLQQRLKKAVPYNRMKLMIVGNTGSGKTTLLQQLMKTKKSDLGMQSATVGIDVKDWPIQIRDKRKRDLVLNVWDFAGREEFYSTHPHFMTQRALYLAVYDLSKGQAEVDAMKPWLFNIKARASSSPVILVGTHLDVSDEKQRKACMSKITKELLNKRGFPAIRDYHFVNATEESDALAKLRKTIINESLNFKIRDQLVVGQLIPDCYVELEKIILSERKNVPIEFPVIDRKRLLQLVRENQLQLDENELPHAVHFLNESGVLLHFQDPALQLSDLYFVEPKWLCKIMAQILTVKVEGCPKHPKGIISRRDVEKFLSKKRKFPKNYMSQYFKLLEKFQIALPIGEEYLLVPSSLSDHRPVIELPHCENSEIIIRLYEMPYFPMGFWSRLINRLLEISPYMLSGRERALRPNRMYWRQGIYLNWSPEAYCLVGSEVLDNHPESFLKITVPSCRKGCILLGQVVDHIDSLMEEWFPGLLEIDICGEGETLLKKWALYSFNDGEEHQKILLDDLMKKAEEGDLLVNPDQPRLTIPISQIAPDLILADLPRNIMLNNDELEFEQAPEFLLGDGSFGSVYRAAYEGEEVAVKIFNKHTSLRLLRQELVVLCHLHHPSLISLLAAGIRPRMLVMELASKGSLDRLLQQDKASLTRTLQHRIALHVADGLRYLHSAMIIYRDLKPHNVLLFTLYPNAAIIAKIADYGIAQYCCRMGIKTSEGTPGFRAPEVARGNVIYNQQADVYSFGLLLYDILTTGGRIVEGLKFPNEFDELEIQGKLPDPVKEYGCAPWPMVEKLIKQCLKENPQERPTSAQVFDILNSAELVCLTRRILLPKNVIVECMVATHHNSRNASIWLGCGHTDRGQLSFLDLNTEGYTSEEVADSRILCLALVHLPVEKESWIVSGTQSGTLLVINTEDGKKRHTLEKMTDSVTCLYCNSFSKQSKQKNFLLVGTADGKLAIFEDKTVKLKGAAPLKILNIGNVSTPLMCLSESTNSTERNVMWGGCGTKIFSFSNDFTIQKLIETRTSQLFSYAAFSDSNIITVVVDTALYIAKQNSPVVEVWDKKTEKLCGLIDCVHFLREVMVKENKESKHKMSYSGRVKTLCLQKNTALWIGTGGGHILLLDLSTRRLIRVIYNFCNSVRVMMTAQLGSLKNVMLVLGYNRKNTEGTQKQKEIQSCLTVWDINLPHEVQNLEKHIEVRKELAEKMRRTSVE
# T2 sequence (Q5S007 whole entry): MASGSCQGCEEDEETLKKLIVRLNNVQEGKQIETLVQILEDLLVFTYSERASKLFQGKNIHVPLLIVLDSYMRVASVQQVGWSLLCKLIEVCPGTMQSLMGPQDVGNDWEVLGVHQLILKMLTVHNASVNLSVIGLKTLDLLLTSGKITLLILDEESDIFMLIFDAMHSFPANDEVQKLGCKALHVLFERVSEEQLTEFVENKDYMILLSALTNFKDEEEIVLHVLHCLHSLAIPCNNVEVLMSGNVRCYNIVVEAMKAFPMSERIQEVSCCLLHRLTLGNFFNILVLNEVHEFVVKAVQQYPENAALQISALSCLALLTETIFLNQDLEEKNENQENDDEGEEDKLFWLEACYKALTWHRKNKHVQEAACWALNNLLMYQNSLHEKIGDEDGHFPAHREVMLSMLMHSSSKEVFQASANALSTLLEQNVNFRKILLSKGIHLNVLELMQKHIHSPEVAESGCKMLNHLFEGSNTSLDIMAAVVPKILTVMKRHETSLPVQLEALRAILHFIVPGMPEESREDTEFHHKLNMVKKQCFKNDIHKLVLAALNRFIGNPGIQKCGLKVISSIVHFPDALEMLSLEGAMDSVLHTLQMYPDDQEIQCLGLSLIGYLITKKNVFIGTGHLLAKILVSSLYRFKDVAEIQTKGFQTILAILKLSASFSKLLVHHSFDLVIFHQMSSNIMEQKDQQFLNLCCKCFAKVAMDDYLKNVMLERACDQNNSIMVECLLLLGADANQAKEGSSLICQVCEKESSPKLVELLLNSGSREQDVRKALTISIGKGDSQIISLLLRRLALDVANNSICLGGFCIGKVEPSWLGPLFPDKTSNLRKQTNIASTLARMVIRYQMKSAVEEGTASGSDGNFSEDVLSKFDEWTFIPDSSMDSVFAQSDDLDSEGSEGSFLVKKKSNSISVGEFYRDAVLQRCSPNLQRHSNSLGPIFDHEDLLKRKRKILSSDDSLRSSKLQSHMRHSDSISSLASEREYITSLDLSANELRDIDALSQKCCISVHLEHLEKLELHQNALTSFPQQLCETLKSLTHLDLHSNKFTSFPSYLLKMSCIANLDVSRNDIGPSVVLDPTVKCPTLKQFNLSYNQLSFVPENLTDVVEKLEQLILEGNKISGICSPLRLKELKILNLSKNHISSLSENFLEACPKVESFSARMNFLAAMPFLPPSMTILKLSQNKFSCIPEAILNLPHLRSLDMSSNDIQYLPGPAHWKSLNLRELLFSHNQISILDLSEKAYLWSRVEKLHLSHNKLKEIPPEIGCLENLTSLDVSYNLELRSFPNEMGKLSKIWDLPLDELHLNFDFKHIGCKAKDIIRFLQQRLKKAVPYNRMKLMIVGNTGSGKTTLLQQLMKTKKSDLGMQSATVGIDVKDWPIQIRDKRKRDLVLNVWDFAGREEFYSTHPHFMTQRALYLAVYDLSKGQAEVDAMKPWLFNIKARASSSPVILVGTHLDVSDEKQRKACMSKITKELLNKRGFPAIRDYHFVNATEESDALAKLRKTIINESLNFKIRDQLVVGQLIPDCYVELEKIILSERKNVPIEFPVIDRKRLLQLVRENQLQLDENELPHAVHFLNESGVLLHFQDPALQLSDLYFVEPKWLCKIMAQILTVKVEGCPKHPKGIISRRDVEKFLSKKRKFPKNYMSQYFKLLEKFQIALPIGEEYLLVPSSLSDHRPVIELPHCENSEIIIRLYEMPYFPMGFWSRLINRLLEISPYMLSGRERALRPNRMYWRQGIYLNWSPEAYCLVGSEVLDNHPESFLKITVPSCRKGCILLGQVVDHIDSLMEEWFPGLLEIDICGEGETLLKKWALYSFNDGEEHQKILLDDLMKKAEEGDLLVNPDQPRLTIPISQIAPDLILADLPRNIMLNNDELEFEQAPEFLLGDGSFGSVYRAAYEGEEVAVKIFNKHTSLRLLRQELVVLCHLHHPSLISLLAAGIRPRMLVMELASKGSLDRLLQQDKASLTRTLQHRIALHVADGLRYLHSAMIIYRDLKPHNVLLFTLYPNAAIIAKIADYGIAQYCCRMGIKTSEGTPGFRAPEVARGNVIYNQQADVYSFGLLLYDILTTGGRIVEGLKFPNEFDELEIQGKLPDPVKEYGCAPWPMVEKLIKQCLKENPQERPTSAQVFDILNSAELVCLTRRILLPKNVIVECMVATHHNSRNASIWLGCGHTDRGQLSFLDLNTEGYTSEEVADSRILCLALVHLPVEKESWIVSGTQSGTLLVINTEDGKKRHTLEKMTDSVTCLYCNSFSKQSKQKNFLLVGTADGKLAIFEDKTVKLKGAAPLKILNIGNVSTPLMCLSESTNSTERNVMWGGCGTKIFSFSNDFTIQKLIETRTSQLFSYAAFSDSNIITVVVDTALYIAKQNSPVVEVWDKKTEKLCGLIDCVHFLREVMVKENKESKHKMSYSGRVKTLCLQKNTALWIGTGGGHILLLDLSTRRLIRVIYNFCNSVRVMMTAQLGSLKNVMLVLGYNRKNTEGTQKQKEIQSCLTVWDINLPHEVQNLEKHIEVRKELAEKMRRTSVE
# T1 sequence (Q5S007 whole entry): as above
Phosphorylation level relative to solvent (%) (cellular pS935 assay) [1],"Cellular pS935 (% @ 5 μM) [1, 5]","IC50 [2, 6]",% LRRKtide phosphorylation relative to solvent [3],Molecule,further results
14.34%,14.34%,10 nM,4.57%,CN(C)S(=O)(=O)c1ccc2c(c1)/C(=C/c1cc3c([nH]1)CCCC3)C(=O)N2 [SU6656],"IC50 [1, 4]: 423 nM"
14.19%,14.19%,10.9 nM,0.79%,CCN(CC)CCNC(=O)c1c(C)[nH]c(/C=C2\C(=O)Nc3ccc(Cl)cc32)c1C [SU11652],"IC50 [1, 4]: 316 nM"
–,85.53%,1790 nM,–,O=C1Nc2ccccc2/C1=C1/Nc2ccccc2/C1=N\O [Indirubin-3'-monoxime],"pIC50 in vitro (lrrktide) [2, 6]: 5.75"
94.62%,94.62%,2100 nM,2.99%,COc1ccc2c(c1)/C(=C/c1cnc[nH]1)C(=O)N2 [SU9516],–
45.08%,45.08%,273 nM,2.19%,Cc1cc(C)c(/C=C2\C(=O)Nc3ccccc32)[nH]1 [VEGF receptor 2 kinase inhibitor III],"pIC50 cellular (pS935) [1, 4]: <5.7; IC50 [1, 4]: > 2000 nM; pIC50 in vitro (lrrktide) [2, 6]: 6.56"
61.51%,61.51%,936 nM,27.12%,COc1cc2ncnc(Nc3ccc(Oc4ccccc4)cc3)c2cc1OC [Src kinase inhibitor I],"pIC50 in vitro (lrrktide) [2, 6]: 6.03"
37.26%,37.26%,36.3 nM,4.13%,O=C1Nc2ccc(Br)cc2/C1=C/c1cc2c([nH]1)CCCC2 [VEGF receptor 2 kinase inhibitor II],"pIC50 cellular (pS935) [1, 4]: <5.7; IC50 [1, 4]: > 2000 nM; pIC50 in vitro (lrrktide) [2, 6]: 7.44"
121.05%,121.05%,2030 nM,7.36%,CC(C)[C@H](CO)Nc1nc(Nc2cc(N)cc(Cl)c2)c2ncn(C(C)C)c2n1 [Aminopurvalanol A],–
100.49%,100.49%,> 10000 nM,60.51%,COc1ccc(CNc2nc(N(CCO)CCO)nc3c2ncn3C(C)C)cc1 [Cdk2 inhibitor III],"pIC50 in vitro (lrrktide) [2, 6]: <5"
–,72.69%,297 nM,–,PKR inhibitor. negative control,"pIC50 in vitro (lrrktide) [2, 6]: 6.53"
–,57.29%,632 nM,–,Syk inhibitor,"pIC50 in vitro (lrrktide) [2, 6]: 6.20"
107.46%,–,–,17.88%,"Cn1nc2c3c(cccc31)C(=O)c1ccccc1-2 [JNK inhibitor, negative control]",–
71.73%,–,–,47.94%,c1ccc(-c2[nH]ncc2-c2ccnc3ccccc23)nc1 [TGF-b RI kinase inhibitor],–
–,–,–,–,COc1cc(C(=O)N2CCC(N3CCN(C)CC3)CC2)ccc1Nc1ncc2c(n1)N(C)c1ccccc1C(=O)N2C [LRRK2 IN1],Cellular pS935 (% @ 5 μM) [1]: 9.32%; pIC50 cellular (pS935) [1]: 6.55; IC50 [1]: 280 nM; pIC50 in vitro (lrrktide) [2]: 8.45; IC50 [2]: 3.54 nM
65.88%,–,–,14.06%,"Nc1[nH]nc2nnc(-c3c(-c4ccccc4)nn4ccccc34)cc12 [ERK inhibitor II, FR180204, FR180204]",–
117.92%,–,–,61.26%,N#C/C(=C(/N)Sc1ccc(N)cc1)c1ccccc1C(F)(F)F [MEK 1/2 inhibitor],–
95.90%,–,–,106.35%,Cn1sc(=O)n(Cc2ccccc2)c1=O [GSK-3b inhibitor I],–
71.83%,–,–,55.78%,O=C(Nc1nc2ccccc2n1CCN1CCOCC1)c1cccc([N+](=O)[O-])c1 [IRAK-1/4 inhibitor],–
155.11%,–,–,45.29%,"Cl.Cl.O=S(=O)(NCCNC/C=C/c1ccc(Br)cc1)c1cccc2cnccc12 [H-89, Dihydrochloride]",–
76.44%,–,–,18.59%,CC[n+]1c(/C=C/N(C)c2ccccc2)n(-c2ccccc2)c2ccc(-c3nc4ccccc4s3)cc21.[I-] [Akt inhibitor IV],–
77.68%,–,–,34.30%,COc1cc2nccc(Oc3ccc(NC(=S)NC(=O)c4ccccc4C)cc3)c2cc1OC [PDGF RTK inhibitor],–
70.97%,–,–,73.68%,Nc1nccc(-c2c(-c3ccc(F)cc3)ncn2C2CCNCC2)n1 [SB 220025],–
48.36%,–,–,89.01%,O=C(c1ccccc1)c1ccc(N2CCOCC2)cc1O [DNA-PK inhibitor V],dephosphorylation of LRRK2 (Ser935) [1]: ~ 50%; activity on LRRK2 kinase activity in vitro (in words) [3]: inactive
63.54%,–,–,38.91%,COc1ccc(C(=O)Nc2sc3c(c2C(N)=O)CCCC3)cc1OC [Flt-3 inhibitor],–

Molecule,Phosphorylation level relative to solvent (%) (cellular pS935 assay) [1],"Cellular pS935 (% @ 5 μM) [1, 5]","IC50 [2, 6]",% LRRKtide phosphorylation relative to solvent [3],further results
CCCNC(=O)Nc1ccc(Oc2ncnc3cc(OC)c(OC)cc23)cc1Cl,–,62.48%,> 10000 nM,–,"pIC50 in vitro (lrrktide) [2, 6]: <5"
"CO[C@H]1[C@@H](OC)C[C@H](C)[C@@H](OC)C2=CC(=O)C=C(NC(=O)/C(C)=C/C=C\[C@H](OC)[C@@H](OC(N)=O)/C(C)=C/[C@@H]1C)C2=O [Herbimycin A, Streptomyces sp., Herbimycin A]",92.79%,–,–,103.97%,–
O=c1[nH]c2ccccc2n1C1CCN(Cc2ccc(-c3nc4cc5nc[nH]c5cc4nc3-c3ccccc3)cc2)CC1 [Akti-1/2],77.80%,–,–,99.69%,–
Nc1nc(Nc2ccc(S(N)(=O)=O)cc2)nn1C(=O)c1c(F)cccc1F [Aurora kinase/Cdk inhibitor],45.67%,–,–,1.21%,–
O=c1c(-c2ccc(F)cc2)c(-c2ccncc2)[nH]n1-c1ccc(Cl)cc1 [p38 MAP kinase inhibitor],93.68%,–,–,132.68%,–
Oc1ccc(-c2nc(-c3ccncc3)c(-c3ccc(F)cc3)[nH]2)cc1 [SB 202190],88.12%,–,–,45.07%,–
CCn1cnc2c(Nc3cccc(Cl)c3)nc(N[C@H]3CCCC[C@H]3N)nc21 [Cdk1 inhibitor. CGP74514A],–,83.35%,3470 nM,–,"pIC50 in vitro (lrrktide) [2, 6]: 5.46"
Cc1ccc(S(=O)(=O)/C=C/C#N)cc1 [BAY 11-7082],47.14%,–,–,132.94%,dephosphorylation of LRRK2 (Ser935) [1]: ~ 50%; activity on LRRK2 kinase activity in vitro (in words) [3]: inactive
N#C/C(=C/c1ccc(O)c(O)c1)C(=O)NCc1ccccc1 [AG490],50.68%,–,–,34.24%,dephosphorylation of LRRK2 (Ser935) [1]: 49.32%
CN(C)CCCn1cc(C2=C(c3c[nH]c4ccccc34)C(=O)NC2=O)c2ccccc21 [Bisindolylmaleimide I],73.14%,–,–,4.46%,–
COc1cc(N2CCOCC2)ccc1Nc1ncc(F)c(Nc2ccccc2NS(C)(=O)=O)n1 [CZC25146],–,8.62%,1.78 nM,–,"pIC50 cellular (pS935) [1, 4]: 7.36; IC50 [1, 4]: 43.6 nM; pIC50 in vitro (lrrktide) [2, 6]: 8.75"
"CCn1cnc2c(Nc3cccc(Cl)c3)nc(N[C@@H]3CCCC[C@@H]3N)nc21 [Cdk1 inhibitor, CGP74514A, CGP74514A]",83.35%,–,–,3.91%,–
O=[N+]([O-])/C=C/c1ccc2c(c1)OCO2 [Syk inhibitor III],68.01%,–,–,82.95%,–
CCCC(=O)Oc1ccc2[nH]c(C(=O)c3cc4ccccc4[nH]3)cc2c1 [PDGF receptor tyrosine kinase inhibitor II],65.41%,–,–,93.77%,–
Oc1ccc(Nc2nc(-c3ccc(Cl)cc3)cs2)cc1 [Sphingosine kinase inhibitor],144.00%,–,–,106.21%,–
CC(C)(C)c1nc2c3cc[nH]c(=O)c3c3cc(F)ccc3c2[nH]1 [JAK inhibitor I],47.17%,–,–,3.20%,–
